Test results from patent US3932382A, “Dideoxybutirosin derivative” (Sankyo Company Limited, priority 1973, dated 1976).
In brackets after ≈: the same amount, converted by molar mass. Where two headings read alike, the source gives them in different places.

Key:
[1] = tested on: Bacillus subtilis P C I-219; assay: Minimum Inhibitory Concentration (Table I); format: cell-based; conditions: PCI219, Heart-Infusion Agar
Description: (§1) Minimum Inhibitory Concentration of 3',4'-
(§2) Medium : Heart-Infusion Agar

Escherichia coli N I H J = assay: Minimum Inhibitory Concentration (Table I); format: cell-based; conditions: Heart-Infusion Agar
Description: as §1, §2

Klebsiella 806 = assay: Minimum Inhibitory Concentration (Table I); format: cell-based; conditions: Heart-Infusion Agar
Description: as §1, §2

Proteus vulgaris 025 = assay: Minimum Inhibitory Concentration (Table I); format: cell-based; conditions: Heart-Infusion Agar
Description: as §1, §2

[2] = tested on: Pseudomonas aeruginosa Scr.; assay: Minimum Inhibitory Concentration (Table I); format: cell-based; conditions: Heart-Infusion Agar
Description: as §1, §2

Salmonela enteritidis = assay: Minimum Inhibitory Concentration (Table I); format: cell-based; conditions: Heart-Infusion Agar
Description: as §1, §2

Shigella flexneri 2a = assay: Minimum Inhibitory Concentration (Table I); format: cell-based; conditions: Heart-Infusion Agar
Description: as §1, §2

Staph. aureus 56 = assay: Minimum Inhibitory Concentration (Table I); format: cell-based; conditions: Staphylococcus aureus, Heart-Infusion Agar
Description: as §1, §2

[3] = tested on: Staphylococcus aureus 209P; assay: Minimum Inhibitory Concentration (Table I); format: cell-based; conditions: Heart-Infusion Agar
Description: as §1, §2

E. coli 620 = assay: Minimum Inhibitory Concentration (Table I); format: cell-based; conditions: Escherichia coli, Heart-Infusion Agar, butirosin-resistant bacteria
Description: as §1
(§3) Mark *means butirosin-resistant bacteria
as §2

E. coli 665 [4] = assay: Minimum Inhibitory Concentration (Table I); format: cell-based; conditions: Escherichia coli, Heart-Infusion Agar, butirosin-resistant bacteria
Description: as §1, §3, §2

[5] = tested on: Pseudomonas aeruginosa 1055; assay: Minimum Inhibitory Concentration (Table I); format: cell-based; conditions: Heart-Infusion Agar, butirosin-resistant bacteria
Description: as §1, §3, §2

E. coli 704-1 = assay: Protecting Effects in Mice (Table II); format: in vivo; conditions: 2 doses subcutaneously at 0 and 4 hours post-infection
Description: (§4) Protecting Effects of 3',4'-Dideoxybutirosin A in Mice
ED50 : mg./kg./dose (2 doses subcutaneously at 0 and […]

E. coli 665 [6] = assay: Protecting Effects in Mice (Table II); format: in vivo; conditions: 2 doses subcutaneously at 0 and 4 hours post-infection, butirosin-resistant strain
Description: as §4
ED50 : mg./kg./dose (2 doses subcutaneously at 0 and
*Butirosin-resistant strain

[7] = tested on: E. coli clinical isolates (125 strains); assay: Susceptibility of Clinical Isolates (Table III); format: cell-based; conditions: of 125 strains
Description: (§5) Susceptibility of Clinical Isolates to 3',4'-

[8] = tested on: P. aeruginosa clinical isolates (102 strains); assay: Susceptibility of Clinical Isolates (Table III); format: cell-based; conditions: of 102 strains
Description: as §5

[9] = for Death incidence: mouse, in vivo
Description: Acute Toxicities of 3',4'-Dideoxybutirosin A
Mice : ddY strain, male, 20 ± 0.2 g.

[10] = tested on: gram-positive and -negative bacteria; assay: Antibacterial activity, general statement; format: cell-based
[11] = tested on: butirosin-resistant bacteria; assay: Antibacterial activity against butirosin-resistant bacteria, statement; format: cell-based
Description: as §1, §3, §2

[12] = tested on: butirosin sensitive strains; assay: Antibacterial activity against butirosin sensitive strains, statement; format: cell-based
Description: as §1, §2

Compound: NCC[C@H](O)C(=O)N[C@@H]1C[C@H](N)[C@@H](O[C@H]2O[C@H](CN)CC[C@H]2N)[C@H](O[C@@H]2O[C@H](CO)[C@H](O)[C@H]2O)[C@H]1O [3',4'-Dideoxybutirosin A]
- MIC [1]: 0.1 µg/mL (≈ 0.191 µM)
- MIC (Escherichia coli N I H J): 0.4 µg/mL (≈ 0.764 µM)
- MIC (Klebsiella 806): 0.8 µg/mL (≈ 1.53 µM)
- MIC (Proteus vulgaris 025): 0.8 µg/mL (≈ 1.53 µM)
- MIC [2]: 3.1 µg/mL (≈ 5.92 µM)
- MIC (Salmonela enteritidis): 1.5 µg/mL (≈ 2.86 µM)
- MIC (Shigella flexneri 2a): 3.1 µg/mL (≈ 5.92 µM)
- MIC (Staph. aureus 56): 0.4 µg/mL (≈ 0.764 µM)
- MIC [3]: 0.1 µg/mL (≈ 0.191 µM)
- MIC (E. coli 620): 3.1 µg/mL (≈ 5.92 µM)
- MIC (E. coli 665 [4]): 3.1 µg/mL (≈ 5.92 µM)
- MIC [5]: 6.2 µg/mL (≈ 11.8 µM)
- ED50 (E. coli 704-1; Escherichia coli, 7041, sc, read-out: ED50): 2.3 mg/kg
- ED50 (E. coli 665 [6]; Escherichia coli, 665, sc, read-out: ED50): 2.43 mg/kg
- number of strains with MIC 0.8 mcg./ml. ([7]; MIC 0.8 mcg./ml.): 0 strains
- number of strains with MIC 1.5 mcg./ml. ([7]; MIC 1.5 mcg./ml.): 0 strains
- number of strains with MIC 3.1 mcg./ml. ([7]; MIC 3.1 mcg./ml.): 0 strains
- number of strains with MIC 6.2 mcg./ml. ([7]; MIC 6.2 mcg./ml.): 6 strains
- number of strains with MIC 12.5 mcg./ml. ([7]; MIC 12.5 mcg./ml.): 100 strains
- number of strains with MIC 25 mcg./ml. ([7]; MIC 25 mcg./ml.): 15 strains
- number of strains with MIC 50 mcg./ml. ([7]; MIC 50 mcg./ml.): 2 strains
- number of strains with MIC 100 mcg./ml. ([7]; MIC 100 mcg./ml.): 2 strains
- number of strains with MIC 200 mcg./ml. ([7]; MIC 200 mcg./ml.): 0 strains
- number of strains with MIC >200 mcg./ml. ([7]; MIC >200 mcg./ml.): 0 strains
- number of strains with MIC 0.8 mcg./ml. ([8]; MIC 0.8 mcg./ml.): 1 strains
- number of strains with MIC 1.5 mcg./ml. ([8]; MIC 1.5 mcg./ml.): 3 strains
- number of strains with MIC 3.1 mcg./ml. ([8]; MIC 3.1 mcg./ml.): 5 strains
- number of strains with MIC 6.2 mcg./ml. ([8]; MIC 6.2 mcg./ml.): 20 strains
- number of strains with MIC 12.5 mcg./ml. ([8]; MIC 12.5 mcg./ml.): 41 strains
- number of strains with MIC 25 mcg./ml. ([8]; MIC 25 mcg./ml.): 21 strains
- number of strains with MIC 50 mcg./ml. ([8]; MIC 50 mcg./ml.): 3 strains
- number of strains with MIC 100 mcg./ml. ([8]; MIC 100 mcg./ml.): 5 strains
- number of strains with MIC 200 mcg./ml. ([8]; MIC 200 mcg./ml.): 2 strains
- number of strains with MIC >200 mcg./ml. ([8]; MIC >200 mcg./ml.): 1 strains
- toxicity ([9]; as compared with the prior similar aminoglycoside antibiotics): considerably low toxicity
- Death incidence ([9]; iv, 250 mg/kg): 0/3
- Death incidence ([9]; iv, 500 mg/kg): 1/2
- Death incidence ([9]; sc, 2000 mg/kg): 0/3
- antibacterial activities [10]: broad antibacterial activities
- activity against butirosin-resistant bacteria [11]: an activity against butirosin -resistant bacteria
- activity against butirosin-resistant bacteria ([11]; listed as 3', 4'-dideoxybutirosin A (I)): outstanding activities
- activities against butirosin sensitive strains [12]: outstanding activities

Compound: Butirosin [reference compound]
- ED50 (E. coli 704-1): 2.47 mg./kg./dose
- ED50 (E. coli 665 [6]): 146.3 mg./kg./dose
